Laboratory results as given in PMC6220894 (Food and chemical toxicology : an international journal …, 2018).
Like-named read-outs stand apart in the source and are kept apart here.

Assays:
[1] = test system: Salmonella typhimurium TA 102; experiment: Ames bacterial reverse mutation assay, pre-incubation method; assay type: cell-based
[2] = test system: Salmonella typhimurium TA 1537; experiment: Ames bacterial reverse mutation assay, plate incorporation method; assay type: cell-based
[3] = test system: Salmonella typhimurium TA 98; experiment: Ames bacterial reverse mutation assay, pre-incubation method; assay type: cell-based
CYP3A4 = experiment: CYP mRNA induction in human hepatocytes; assay type: in vitro ADME; conditions: 0.3, 3, 30 µM; 72 hours; 3 donors
[4] = test system: Salmonella typhimurium TA 100; assay type: cell-based; conditions: pre-incubation
[5] = Red blood cell distribution in whole blood; assay type: in vitro ADME; conditions: male, Sprague-Dawley, rat, whole blood (EDTA)
[6] = test system: Salmonella typhimurium TA 102; experiment: Ames bacterial reverse mutation assay, plate incorporation method; assay type: cell-based
[7] = Plasma protein binding by equilibrium dialysis; assay type: in vitro ADME; conditions: male, Sprague-Dawley, rat, plasma, pH 7.4
plasma protein [8] = experiment: Plasma protein binding by equilibrium dialysis; assay type: in vitro ADME; conditions: rat plasma, mean ± SE
plasma protein [9] = conditions: human plasma, mean ± SE
memory deficits = conditions: mouse model of Alzheimer's disease; ref Davies et al., 2011; cited from earlier work
[10] = Stability in rabbit plasma; assay type: in vitro ADME
hERG = hERG (Homo sapiens, UniProt Q12809); assay type: cell-based
Sequence of hERG (Q12809 whole entry): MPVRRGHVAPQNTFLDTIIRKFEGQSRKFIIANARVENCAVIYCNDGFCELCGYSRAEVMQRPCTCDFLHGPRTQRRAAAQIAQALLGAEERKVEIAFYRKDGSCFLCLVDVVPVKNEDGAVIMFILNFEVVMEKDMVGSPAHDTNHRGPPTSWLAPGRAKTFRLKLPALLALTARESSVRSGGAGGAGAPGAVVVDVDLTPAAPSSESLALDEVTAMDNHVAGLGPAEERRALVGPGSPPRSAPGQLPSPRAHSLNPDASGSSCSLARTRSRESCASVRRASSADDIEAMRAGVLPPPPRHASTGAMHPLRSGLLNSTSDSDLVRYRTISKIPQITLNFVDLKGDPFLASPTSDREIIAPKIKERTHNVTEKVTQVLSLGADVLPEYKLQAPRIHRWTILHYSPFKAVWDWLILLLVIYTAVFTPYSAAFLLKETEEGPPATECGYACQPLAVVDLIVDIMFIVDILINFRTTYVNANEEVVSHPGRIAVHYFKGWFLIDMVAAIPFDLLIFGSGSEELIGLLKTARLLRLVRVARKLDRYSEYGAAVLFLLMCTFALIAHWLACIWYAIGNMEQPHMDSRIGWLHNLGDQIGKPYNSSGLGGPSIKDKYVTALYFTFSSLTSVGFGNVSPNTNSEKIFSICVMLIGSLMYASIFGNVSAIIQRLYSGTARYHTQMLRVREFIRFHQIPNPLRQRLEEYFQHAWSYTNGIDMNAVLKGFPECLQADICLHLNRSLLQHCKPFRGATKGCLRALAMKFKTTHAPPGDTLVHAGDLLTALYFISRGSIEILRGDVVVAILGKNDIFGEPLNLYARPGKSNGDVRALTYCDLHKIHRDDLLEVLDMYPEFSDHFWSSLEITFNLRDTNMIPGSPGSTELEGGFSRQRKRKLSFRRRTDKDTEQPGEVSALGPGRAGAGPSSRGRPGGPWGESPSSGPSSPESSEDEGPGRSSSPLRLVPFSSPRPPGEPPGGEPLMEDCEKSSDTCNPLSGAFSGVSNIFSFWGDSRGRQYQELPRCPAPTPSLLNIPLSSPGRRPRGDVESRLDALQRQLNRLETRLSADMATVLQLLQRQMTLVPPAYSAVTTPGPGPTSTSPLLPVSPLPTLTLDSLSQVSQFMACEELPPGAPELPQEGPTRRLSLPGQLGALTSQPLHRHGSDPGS

hypertension = conditions: mice; ref Wu et al., 2016; cited from earlier work
[11] = test system: Salmonella typhimurium TA 100; assay type: cell-based; conditions: plate incorporation
[12] = test system: Salmonella typhimurium TA 1537; experiment: Ames bacterial reverse mutation assay, pre-incubation method; assay type: cell-based
in vitro = conditions: both, human, plasma (pooled), pH 7.4
CYP1A2 or CYP3A4 = experiment: CYP mRNA induction in human hepatocytes, isoform not given; assay type: in vitro ADME; conditions: 0.3 µM; one donor; isoform not stated
CYP2B6 = experiment: CYP mRNA induction in human hepatocytes; assay type: in vitro ADME; conditions: 0.3, 3, 30 µM; 72 hours; 3 donors
[13] = ref Davies et al., 2002; Zagol-Ikapitte et al., 2010a; cited from earlier work
[14] = In vitro metabolism in cryopreserved hepatocytes; assay type: in vitro ADME; conditions: rat hepatocytes; 25 µM; 4 hours
[15] = mice; long-term (10 month) administration; ref Davies et al., 2011; cited from earlier work
[16] = Stability in rabbit whole blood; assay type: in vitro ADME
[17] = −S9, 0.05 mg/plate as printed (third dose row)
[18] = +S9, 0.05 mg/plate as printed (third dose row)

In the case of CC(=O)O.NCc1ccccc1O [2-HOBA, 2-Hydroxybenzylamine acetate], the “Mean plate counts (revertant colonies)” value ([1]; +S9, 0.05 mg/plate) is reported as 280.0±6.0, the “Mean plate counts (revertant colonies)” value ([1]; +S9, 0.15 mg/plate) is reported as 271.3±11.0 and the “Mean plate counts (revertant colonies)” value ([1]; +S9, 0.5 mg/plate) is reported as 256.0±7.2. For the same compound, the “Mean plate counts (revertant colonies)” value ([1]; +S9, 1.5 mg/plate) was 283.3±16.2, the “Mean plate counts (revertant colonies)” value ([1]; +S9, 5 mg/plate) was 256.7±8.1 and the “Change in revertant colony counts vs negative control (mutagenicity)” value (“Change in revertant colony counts” for short) ([1]; +S9 and −S9, all dose levels) was “No changes in revertant colony counts were observed”. For the same compound, the “Mean plate counts (revertant colonies)” value ([1]; −S9, 0.05 mg/plate) was 241.3±12.1, the “Mean plate counts (revertant colonies)” value [1, 17] was 236.0±15.6 and the “Mean plate counts (revertant colonies)” value ([1]; −S9, 0.15 mg/plate) was 232.7±3.1. For the same compound, the “Mean plate counts (revertant colonies)” value ([1]; −S9, 1.5 mg/plate) was 250.0±12.5, the “Mean plate counts (revertant colonies)” value ([1]; −S9, 5 mg/plate) was 250.7±14.0 and the “Mean plate counts (revertant colonies)” value ([2]; +S9, 0.05 mg/plate) was 6.3±0.6. For the same compound, the “Mean plate counts (revertant colonies)” value [2, 18] was 6.3±0.6, the “Mean plate counts (revertant colonies)” value ([2]; +S9, 0.15 mg/plate) was 6.3±1.5 and the “Mean plate counts (revertant colonies)” value ([2]; +S9, 1.5 mg/plate) was 6.0±1.0. For the same compound, the “Mean plate counts (revertant colonies)” value ([2]; +S9, 5 mg/plate) was 6.3±1.5, the “Change in revertant colony counts” value ([2]; +S9 and −S9, all dose levels) was “No changes in revertant colony counts were observed” and the “Mean plate counts (revertant colonies)” value ([2]; −S9, 0.05 mg/plate) was 5.0±1.0. The “Mean plate counts (revertant colonies)” value [2, 17] was 5.3±0.6, the “Mean plate counts (revertant colonies)” value ([2]; −S9, 0.15 mg/plate) was 5.0±0.0 and the “Mean plate counts (revertant colonies)” value ([2]; −S9, 1.5 mg/plate) was 5.7±1.2. For the same compound, the “Mean plate counts (revertant colonies)” value ([2]; −S9, 5 mg/plate) was 6.0±1.0, the “Mean plate counts (revertant colonies)” value ([3]; +S9, 0.05 mg/plate) was 25.7±3.1 and the “Mean plate counts (revertant colonies)” value ([3]; +S9, 0.15 mg/plate) was 23.7±2.5. For the same compound, the “Mean plate counts (revertant colonies)” value ([3]; +S9, 0.5 mg/plate) was 24.3±2.1, the “Mean plate counts (revertant colonies)” value ([3]; +S9, 1.5 mg/plate) was 25.7±3.1 and the “Mean plate counts (revertant colonies)” value ([3]; +S9, 5 mg/plate) was 22.3±3.2. For the same compound, the “Change in revertant colony counts” value ([3]; +S9 and −S9, all dose levels) was “No changes in revertant colony counts were observed”, the “Mean plate counts (revertant colonies)” value ([3]; −S9, 0.05 mg/plate) was 20.0±1.0 and the “Mean plate counts (revertant colonies)” value [3, 17] was 20.7±2.1. The “Mean plate counts (revertant colonies)” value ([3]; −S9, 0.15 mg/plate) was 16.7±1.5, the “Mean plate counts (revertant colonies)” value ([3]; −S9, 1.5 mg/plate) was 22.3±3.2 and the “Mean plate counts (revertant colonies)” value ([3]; −S9, 5 mg/plate) was 23.0±1.0. The “CYP3A4 mRNA induction (concentration-dependent >2-fold increase)” value (CYP3A4) was “no evidence of mRNA induction”, the “Mean plate counts (revertant colonies)” value ([4]; +S9, 0.05 mg/plate) was 114.7±12.9 and the “Mean plate counts (revertant colonies)” value ([4]; +S9, 0.15 mg/plate) was 120.7±7.6. The “Mean plate counts (revertant colonies)” value ([4]; +S9, 0.5 mg/plate) was 119.3±7.6, the “Mean plate counts (revertant colonies)” value ([4]; +S9, 1.5 mg/plate) was 112.0±7.2 and the “Mean plate counts (revertant colonies)” value ([4]; +S9, 5 mg/plate) was 114.0±12.5. The “Change in revertant colony counts” value ([4]; +S9 and −S9, all dose levels) was “No changes in revertant colony counts were observed”, the “Mean plate counts (revertant colonies)” value ([4]; −S9, 0.05 mg/plate) was 98.7±2.3 and the “Mean plate counts (revertant colonies)” value [4, 17] was 103.7±1.5. For the same compound, the “Mean plate counts (revertant colonies)” value ([4]; −S9, 0.15 mg/plate) was 96.7±6.1, the “Mean plate counts (revertant colonies)” value ([4]; −S9, 1.5 mg/plate) was 94.7±4.2 and the “Mean plate counts (revertant colonies)” value ([4]; −S9, 5 mg/plate) was 105.3±6.1. The Kp at 2 h, 1 µM [5] was 0.72 ± 0.1, the Kp at 2 h, 10 µM [5] was 0.78 and the blood plasma ratio at 2 h, 1 µM [5] was 0.87 ± 0.05. For the same compound, the blood plasma ratio at 2 h, 10 µM [5] was 0.9, the “Mean plate counts (revertant colonies)” value ([6]; +S9, 0.05 mg/plate) was 302.7±11.4 and the “Mean plate counts (revertant colonies)” value [6, 18] was 323.3±61.2. The “Mean plate counts (revertant colonies)” value ([6]; +S9, 0.15 mg/plate) was 296.7±27.2, the “Mean plate counts (revertant colonies)” value ([6]; +S9, 1.5 mg/plate) was 293.3±24.2 and the “Mean plate counts (revertant colonies)” value ([6]; +S9, 5 mg/plate) was 282.7±19.0. The “Change in revertant colony counts” value ([6]; +S9 and −S9, all dose levels) was “No changes in revertant colony counts were observed”, the “Mean plate counts (revertant colonies)” value ([6]; −S9, 0.05 mg/plate) was 292.7±6.4 and the “Mean plate counts (revertant colonies)” value [6, 17] was 279.3±14.2. The “Mean plate counts (revertant colonies)” value ([6]; −S9, 0.15 mg/plate) was 287.3±24.0, the “Mean plate counts (revertant colonies)” value ([6]; −S9, 1.5 mg/plate) was 297.3±6.4 and the “Mean plate counts (revertant colonies)” value ([6]; −S9, 5 mg/plate) was 328.0±63.2. The fraction unbound at 4 h, 1 µM [7] was 0.76 ± 0.051, the fraction unbound at 4 h, 10 µM [7] was 0.951 and the “fb (bound fraction)” value (plasma protein [8]; 1 µM) was 0.240 ± 0.051. For the same compound, the “fb (bound fraction)” value (plasma protein [8]; 10 µM) was 0.049 ± 0.029, the “fb (bound fraction)” value (plasma protein [9]; 1 µM) was 0.079 ± 0.023 and the “fb (bound fraction)” value (plasma protein [9]; 10 µM) was 0.140 ± 0.022. For the same compound, the memory deficits (memory deficits) was “protection from memory deficits”, the fraction metabolized ([10]; within 30 min) was “more than 60%” and the fraction metabolized ([10]; within 2 hours) was “nearly all”. The IC50 (hERG) was greater than 100 µM, the “Inhibition of hERG current” value (hERG; 0.1 µM) was “no inhibition” and the “Inhibition of hERG current” value (hERG; 1 µM, mean ± SE) was 3.0 ± 0.5 % inhibition. For the same compound, the “Inhibition of hERG current” value (hERG; 10 µM, mean ± SE) was 9.7 ± 1.8 % inhibition, the “Inhibition of hERG current” value (hERG; 100 µM, mean ± SE) was 29.1 ± 1.3 % inhibition and the hypertension (hypertension) was “improved hypertension”. For the same compound, the “Mean plate counts (revertant colonies)” value ([11]; +S9, 0.05 mg/plate) was 106.3±1.5, the “Mean plate counts (revertant colonies)” value [11, 18] was 96.3±5.1 and the “Mean plate counts (revertant colonies)” value ([11]; +S9, 0.15 mg/plate) was 104.7±8.1. The “Mean plate counts (revertant colonies)” value ([11]; +S9, 1.5 mg/plate) was 106.7±6.1, the “Mean plate counts (revertant colonies)” value ([11]; +S9, 5 mg/plate) was 101.3±4.2 and the “Change in revertant colony counts” value ([11]; +S9 and −S9, all dose levels) was “No changes in revertant colony counts were observed”. The “Mean plate counts (revertant colonies)” value ([11]; −S9, 0.05 mg/plate) was 90.3±1.5, the “Mean plate counts (revertant colonies)” value [11, 17] was 100.0±9.2 and the “Mean plate counts (revertant colonies)” value ([11]; −S9, 0.15 mg/plate) was 105.3±8.3. The “Mean plate counts (revertant colonies)” value ([11]; −S9, 1.5 mg/plate) was 101.3±3.2, the “Mean plate counts (revertant colonies)” value ([11]; −S9, 5 mg/plate) was 100.7±2.1 and the “Mean plate counts (revertant colonies)” value ([12]; +S9, 0.05 mg/plate) was 6.7±0.6. For the same compound, the “Mean plate counts (revertant colonies)” value ([12]; +S9, 0.15 mg/plate) was 7.3±1.2, the “Mean plate counts (revertant colonies)” value ([12]; +S9, 0.5 mg/plate) was 8.0±1.0 and the “Mean plate counts (revertant colonies)” value ([12]; +S9, 1.5 mg/plate) was 7.0±1.0. The “Mean plate counts (revertant colonies)” value ([12]; +S9, 5 mg/plate) was 6.3±1.5, the “Change in revertant colony counts” value ([12]; +S9 and −S9, all dose levels) was “No changes in revertant colony counts were observed” and the “Mean plate counts (revertant colonies)” value ([12]; −S9, 0.05 mg/plate) was 6.7±0.6. The “Mean plate counts (revertant colonies)” value [12, 17] was 7.0±0.0, the “Mean plate counts (revertant colonies)” value ([12]; −S9, 0.15 mg/plate) was 6.0±1.0 and the “Mean plate counts (revertant colonies)” value ([12]; −S9, 1.5 mg/plate) was 6.0±1.0. For the same compound, the “Mean plate counts (revertant colonies)” value ([12]; −S9, 5 mg/plate) was 6.3±1.2, the fraction unbound at 4 h, 1 µM (in vitro) was 0.921 ± 0.024 and the fraction unbound at 4 h, 10 µM (in vitro) was 0.86. For the same compound, the “percent induction relative to positive control induction level” value (CYP1A2 or CYP3A4) was “less than 5 % of positive control”, the “CYP2B6 mRNA induction (concentration-dependent >2-fold increase)” value (CYP2B6) was “no evidence of mRNA induction” and the “γKA scavenging rate relative to the rate of formation of γKA protein adducts” value [13] was 980 fold. The principle metabolites observed [14] was “salicylic acid (M1) and the glycoside conjugate metabolite of 2-HOBA”, the “body weight or survival” value [15] was “did not affect body weight or survival” and the “stability in the presence of semicarbazide” value ([16]; rabbit blood fortified with semicarbazide (100 µm)) was “prevented the degradation of 2-HOBA”. For the same compound, the time until undetectable ([16]; rabbit whole blood, 1 µM, 37°C) was no more than 2 h, the fraction metabolized ([16]; rabbit whole blood, within 30 min) was “more than 60%” and the fraction metabolized ([16]; rabbit whole blood, within 2 hours) was “nearly all”.
